Where two headings read alike, the source gives them in different places.
Target: MhuD (Mycobacterium tuberculosis, UniProt P9WKH3)
Assay: biochemical
Format: binding

MhuD, sequence (P9WKH3 whole entry): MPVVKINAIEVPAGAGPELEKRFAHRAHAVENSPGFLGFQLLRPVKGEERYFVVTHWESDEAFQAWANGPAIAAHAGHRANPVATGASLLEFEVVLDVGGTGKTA

SMILES	Kd (read-out: αBV Kd)	Kd
C=CC1=C(C)/C(=C/c2[nH]c(/C=C3N=C(/C=C4\NC(=O)C(C)=C4C=C)C(C)=C\3CCC(=O)O)c(CCC(=O)O)c2C)NC1=O [αBV, biliverdin IXα]	36.4 ± 2.1 nM	
C=CC1=C(C)C2=Cc3c(C=C)c(C)c4[n]3[Fe][n]3c(c(C)c(CCC(=O)O)c3=CC3=NC(=C4)C(C)=C3CCC(=O)O)=CC1=N2 [heme]		6 ± 2.9 nM

Reference: paper PMC7045704 (Biochemistry, 2019)
